Structures are written as SMILES. Numbered stars: 1 amine (or outer) side, 2 acyl side, 3 side chain; on linkers, the order of the positions; unused ones are H or OH. Square brackets hold non-standard residues; d marks the D form. Side chains are listed from the residue outwards. Peptide text beside a SMILES is read from it. * marks the point of attachment. γGlu = O=C(O)[C@H](CCC(=O)[*:2])N[*:1]; αMeF = C[C@](N)(Cc1ccccc1)C(=O)O; αMeK = C[C@](N)(CCCCN)C(=O)O; Lauroyl = CCCCCCCCCCCC(=O)*; αMeS = C[C@](N)(CO)C(=O)O; AEEA = NCCOCCOCC(=O)O; Aib = CC(C)(N)C(=O)O

Series [1] concerns recombinant α-chymotrypsin. The series can be described thus: Proteolytic resistance to α-chymotrypsin (% remaining intact peptide, RP-HPLC AUC). The note with it: t = 0; 37° C., pH 7.8.
Method: (§2) Ratio enzyme (units):peptide (μmoles) ˜1:33. […] Ratio enzyme (units):peptide (μmoles) ˜1:2.5.
(§3) 15 μL aliquots (˜15 μg initial peptide) of the peptide-enzyme mixture are periodically withdrawn (t=0, 30 mins, 1 hr, 2 hr, 4 hr, 8 hr, 24 hr) and quenched immediately by addition to an equal volume (15 μL) of 5% TFA (v/v) in 1:1 water/acetonitrile to arrest proteolytic activity. 20 μL aliquots (˜10 μg initial peptide) are analysed by LC/MS and/or analytical RP-HPLC as follows: LC/MS method: Agilent Polaris C8-A column (4.6×100 mm, 3 micron) elutes with a linear binary gradient of 10-90% MeCN (0.1% TFA v/v) in water (0.1% TFA v/v) over 30 mins at 1.5 mL min^−1 at ambient temperature with detection by both UV absorption at 210 nm and ionization using a Waters 3100 mass detector (ESI^+ mode). Peptide fragments deriving from enzymatic hydrolysis are identified by molecular weight, allowing location of the site of cleavage. Analytical RP-HPLC method: Agilent Polaris C8-A column (4.6×100 mm, 3 micron) elutes with a linear binary gradient of 10-90% MeCN (0.1% TFA v/v) in water (0.1% TFA v/v) over either 10 or 15 mins at 1.5 mL min^−1 at 40° C. with detection by UV absorption at 210 nm. Manual integration (AUC) allows estimation of remaining intact peptide over the time course of the experiment.
(§4) 25 μL aliquots (˜6 μg initial peptide) are analysed by LC/MS and/or analytical RP-HPLC as follows: LC/MS method: Agilent Polaris C8-A column (4.6×100 mm, 3 micron) elutes with a linear binary gradient of 10-90% MeCN (0.1% TFA v/v) in water (0.1% TFA v/v) over 30 mins at 1.5 mL min^−1 at ambient temperature with detection by both UV absorption at 210 nm and ionization using a Waters 3100 mass detector (ESI±mode). Peptide fragments deriving from enzymatic hydrolysis are identified by molecular weight, allowing location of the site of cleavage. Analytical RP-HPLC method: Agilent Polaris C8-A column (4.6×100 mm, 3 micron) elutes with a linear binary gradient of 10-90% MeCN (0.1% TFA v/v) in water (0.1% TFA v/v) over either 10 or 15 mins at 1.5 mL min^−1 at 40° C. with detection by UV absorption at 210 nm. Manual integration (AUC) allows estimation of remaining intact peptide over the time course of the experiment.
Assay in series [2]: as above
Method: as §2, §3, §4
The note with it: recombinant α-chymotrypsin in assay buffer, pH 7.8.

For a further series, the target named is T1, recombinant Neprilysin (Homo sapiens, UniProt P08473).
T1 construct: purchased R&D Systems 1182-ZNC-010
The series can be described thus: Proteolytic resistance to neprilysin (% remaining peptide, RP-HPLC AUC). It is filed as in vitro ADME. The note with it: t = 0 (baseline); 37° C., pH 8.3; enzyme:peptide ~1:33 for non-lipidated, ~1:2.5 for lipidated peptides.

Series [3] deals with porcine pancreatic trypsin (Sus scrofa, UniProt P00761). The series can be described thus: Proteolytic resistance to trypsin (% remaining intact peptide, RP-HPLC AUC). It counts as in vitro ADME. The note with it: t = 0; 37° C., pH 7.8.
Method: Trypsin: Lyophilized porcine pancreatic trypsin (Sigma: T1426) was reconstituted to afford a solution of 100 μg/mL (˜300 units/mL) in assay buffer (50 mM Tris, 10 mM CaCl2), 150 mM NaCl, 1 mM HCl, adjusted to pH 7.8) to give the enzyme stock solution. […] Ratio enzyme (units):peptide (μmoles) ˜1:11. […] Ratio enzyme (units):peptide (μ moles) ˜1.2:1.
Lyophilized porcine pancreatic trypsin (Sigma: T7409) was reconstituted to 200 μg/mL (˜300 units/mL) in assay buffer (50 mM Tris, 10 mM CaCl2), 150 mM NaCl, 1 mM HCl, adjusted to pH 7.8) to give the enzyme stock solution. […] 15 μL aliquots (˜15 μg initial peptide) of the peptide-enzyme mixture were periodically withdrawn (t=0, 30 mins, 1 hr, 2 hr, 4 hr, 8 hr, 24 hr) and quenched immediately by addition to an equal volume (15 μL) of 5% TFA (v/v) in 1:1 water/acetonitrile to arrest proteolytic activity. 20 μL aliquots (˜10 μg initial peptide) were analysed by LC/MS and/or analytical RP-HPLC as follows: LC/MS method: Agilent Polaris C8-A column (4.6×100 mm, 3 micron) eluted with a linear binary gradient of 10-90% MeCN (0.1% TFA v/v) in water (0.1% TFA v/v) over 30 mins at 1.5 mL min^−1 at ambient temperature with detection by both UV absorption at 210 nm and ionization using a Waters 3100 mass detector (ESI^+ mode). Peptide fragments deriving from enzymatic hydrolysis were identified by molecular weight, allowing location of the site of cleavage. Analytical RP-HPLC method: Agilent Polaris C8-A column (4.6×100 mm, 3 micron) eluted with a linear binary gradient of 10-90% MeCN (0.1% TFA v/v) in water (0.1% TFA v/v) over either 10 or 15 mins at 1.5 mL min^−1 at 40° C. with detection by UV absorption at 210 nm. Manual integration (AUC) allowed estimation of remaining intact peptide over the time course of the experiment.
Lyophilized porcine pancreatic trypsin (Sigma: T7409) was reconstituted to 200 μg/mL (˜300 units/mL) in assay buffer (50 mM Tris, 10 mM CaCl2), 150 mM NaCl, 1 mM HCl, adjusted to pH 7.8) to give the enzyme stock solution. […] 25 μL aliquots (˜17 μg initial peptide) of the peptide-enzyme mixture were periodically withdrawn (t=0, 30 mins, 1 hr, 2 hr, 4 hr, 8 hr, 24 hr) and quenched immediately by addition to an equal volume (25 μL) of 5% TFA (v/v) in 1:1 water/acetonitrile to arrest proteolytic activity. 25 μL aliquots (˜8 μg initial peptide) were analysed by LC/MS and/or analytical RP-HPLC as follows: LC/MS method: Agilent Polaris C8-A column (4.6×100 mm, 3 micron) eluted with a linear binary gradient of 10-90% MeCN (0.1% TFA v/v) in water (0.1% TFA v/v) over 30 mins at 1.5 mL min^−1 at ambient temperature with detection by both UV absorption at 210 nm and ionization using a Waters 3100 mass detector (ESI^+ mode). Peptide fragments deriving from enzymatic hydrolysis were identified by molecular weight, allowing location of the site of cleavage. Analytical RP-HPLC method: Agilent Polaris C8-A column (4.6×100 mm, 3 micron) eluted with a linear binary gradient of 10-90% MeCN (0.1% TFA v/v) in water (0.1% TFA v/v) over either 10 or 15 mins at 1.5 mL min^−1 at 40° C. with detection by UV absorption at 210 nm. Manual integration (AUC) allowed estimation of remaining intact peptide over the time course of the experiment.
Series [4] deals with T2, porcine pancreatic pepsin (Sus scrofa, UniProt P00791).
T2 construct: purchased Sigma P7012
The series can be described thus: Proteolytic resistance to pepsin (% remaining intact peptide, RP-HPLC AUC). It counts as in vitro ADME. The note with it: t = 0; 37° C., pH 2.0. On the procedure: Pepsin: Lyophilized porcine pancreatic pepsin (Sigma: P7012) was reconstituted to afford a solution of 200 μg/mL (˜500 units/mL) in assay buffer (0.1 M HCl, pH 2.0) to give the enzyme stock solution. […] Ratio enzyme (units):peptide (moles) ˜1:6. […] Ratio enzyme (units):peptide (μmoles) ˜2:1.
Lyophilized porcine pancreatic pepsin (Sigma: P7012) was reconstituted to […] (˜500 units/mL) in assay buffer ([…], pH 2.0) to give the enzyme stock solution.

Series [5] deals with FASSIF/P (Fasted-State Simulated Intestinal Fluid+USP Pancreatin®). The series can be described thus: Proteolytic resistance to fasted-state simulated intestinal fluid (FASSIF/Pancreatin). It counts as in vitro ADME. The note with it: t = 0; 37° C. On the procedure: (§1) A fresh suspension of FASSIF/P (Fasted-State Simulated Intestinal Fluid+USP Pancreatin®) was prepared according to that described by Galia, Nicolaides, Hörter, Lobenberg, Reppas and Dressman: Pharm. Res. 15 (1998) 698-705. The resulting preparation is proteolytically equivalent to ˜375 units/mL (375 kU/L) and was used immediately without storage. Peptides for evaluation (1.0 mg, ˜250 nmoles) were initially dissolved in pre-warmed FASSIF without Pancreatin® (200 μL) to which was added pre-warmed fresh FASSIF/Pancreatin® (100 μL) to initiate potential digestion. Following momentary vortexing of the Eppendorf reaction tube the mixture was incubated at 37° C. in a thermostatic waterbath for the duration of the experiment. 25 μL aliquots of the co-incubated peptide-enzyme mixture were periodically withdrawn (t=0, 5 m, 10 m, 15 m, 30 m, 1 h, 2 h) and quenched immediately by addition to a solution of 10% TFA in 1:1 water/acetonitrile (75 μL) to arrest proteolytic activity.

Assay in series [6]: as above
It is filed as in vitro ADME. The note with it: 37° C., read-out: Percentage remaining intact peptide (AUC by RP-HPLC) upon incubation with fasted-state simulated intestinal fluid (FASSIF/P). On the procedure:
as §1

T1 sequence (P08473 whole entry): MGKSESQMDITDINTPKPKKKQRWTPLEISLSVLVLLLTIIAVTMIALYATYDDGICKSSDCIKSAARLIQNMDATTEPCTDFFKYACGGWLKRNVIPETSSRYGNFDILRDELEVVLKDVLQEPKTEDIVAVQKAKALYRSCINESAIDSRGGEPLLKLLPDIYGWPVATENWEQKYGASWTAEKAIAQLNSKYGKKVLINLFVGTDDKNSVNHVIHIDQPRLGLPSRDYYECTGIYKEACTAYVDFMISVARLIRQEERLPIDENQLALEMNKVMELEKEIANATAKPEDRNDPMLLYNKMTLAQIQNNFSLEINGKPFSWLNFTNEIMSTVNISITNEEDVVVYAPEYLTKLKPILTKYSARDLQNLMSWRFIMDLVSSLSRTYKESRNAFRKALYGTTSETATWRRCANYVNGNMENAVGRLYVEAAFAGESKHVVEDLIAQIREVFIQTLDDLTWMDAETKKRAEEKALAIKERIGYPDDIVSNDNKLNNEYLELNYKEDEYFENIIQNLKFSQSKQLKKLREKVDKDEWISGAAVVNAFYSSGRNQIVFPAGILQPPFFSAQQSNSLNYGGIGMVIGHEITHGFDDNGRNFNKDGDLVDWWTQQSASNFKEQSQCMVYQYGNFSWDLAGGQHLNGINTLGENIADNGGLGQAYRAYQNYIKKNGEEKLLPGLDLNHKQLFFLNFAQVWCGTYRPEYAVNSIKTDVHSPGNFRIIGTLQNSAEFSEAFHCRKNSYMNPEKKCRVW
T2 sequence (P00791 60-385): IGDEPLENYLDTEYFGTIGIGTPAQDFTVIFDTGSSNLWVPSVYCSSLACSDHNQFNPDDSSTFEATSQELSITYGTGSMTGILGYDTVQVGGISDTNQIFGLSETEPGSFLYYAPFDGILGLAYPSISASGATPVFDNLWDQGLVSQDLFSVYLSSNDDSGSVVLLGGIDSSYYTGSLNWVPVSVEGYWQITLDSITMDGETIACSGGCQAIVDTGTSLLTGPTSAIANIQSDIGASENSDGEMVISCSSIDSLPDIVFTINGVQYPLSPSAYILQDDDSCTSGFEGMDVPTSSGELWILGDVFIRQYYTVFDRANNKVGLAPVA
porcine pancreatic trypsin, sequence (P00761 9-231): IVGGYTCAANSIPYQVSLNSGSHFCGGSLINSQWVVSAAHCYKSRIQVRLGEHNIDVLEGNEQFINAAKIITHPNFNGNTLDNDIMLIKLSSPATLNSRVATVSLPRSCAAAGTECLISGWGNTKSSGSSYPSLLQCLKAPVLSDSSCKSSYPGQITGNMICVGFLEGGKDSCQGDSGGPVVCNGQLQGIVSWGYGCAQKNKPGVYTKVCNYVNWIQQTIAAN
Method for recombinant Neprilysin: Ratio enzyme (units):peptide (moles) ˜1:33. […] Ratio enzyme (units):peptide (moles) ˜1:2.5.
15 μL aliquots (˜15 ng initial peptide) of the peptide-enzyme mixture were periodically withdrawn (t=0, 30 mins, 1 hr, 2 hr, 4 hr, 8 hr, 24 hr) and quenched immediately by addition to an equal volume (15 μL) of 5% TFA (v/v) in 1:1 water/acetonitrile to arrest proteolytic activity. 20 μL aliquots (˜10 ng initial peptide) were analyzed by LC/MS and/or analytical RP-HPLC as follows: LC/MS method: Agilent Polaris C8-A column (4.6×100 mm, 3 micron) eluted with a linear binary gradient of 10-90% MeCN (0.1% TFA v/v) in water (0.1% TFA v/v) over 30 mins at 1.5 mL min-1 at ambient temperature with detection by both UV absorption at 210 nm and ionization using a Waters 3100 mass detector (ESI+ mode). Peptide fragments deriving from enzymatic hydrolysis were identified by molecular weight, allowing location of the site of cleavage. Analytical RP-HPLC method: Agilent Polaris C8-A column (4.6×100 mm, 3 micron) eluted with a linear binary gradient of 10-90% MeCN (0.1% TFA v/v) in water (0.1% TFA v/v) over either 10 or 15 mins at 1.5 mL min^−1 at 40° C. with detection by UV absorption at 210 nm. Manual integration (AUC) allowed estimation of remaining intact peptide over the time course of the experiment.
25 μL aliquots (˜6 μg initial peptide) were analyzed by LC/MS and/or analytical RP-HPLC as follows: LC/MS method: Agilent Polaris C8-A column (4.6×100 mm, 3 micron) eluted with a linear binary gradient of 10-90% MeCN (0.1% TFA v/v) in water (0.1% TFA v/v) over 30 mins at 1.5 mL min^−1 at ambient temperature with detection by both UV absorption at 210 nm and ionization using a Waters 3100 mass detector (ESI^+ mode). Peptide fragments deriving from enzymatic hydrolysis were identified by molecular weight, allowing location of the site of cleavage. Analytical RP-HPLC method: Agilent Polaris C8-A column (4.6×100 mm, 3 micron) eluted with a linear binary gradient of 10-90% MeCN (0.1% TFA v/v) in water (0.1% TFA v/v) over either 10 or 15 mins at 1.5 mL min^−1 at 40° C. with detection by UV absorption at 210 nm. Manual integration (AUC) allowed estimation of remaining intact peptide over the time course of the experiment.

In the case of `CC[C@H](C)[C@H](NC(=O)[C@](C)(Cc1ccccc1)NC(=O)[C@H](CCC(=O)O)NC(=O)[C@](C)(CCCCN)NC(=O)[C@H](C)NC(=O)[C@H](C)NC(=O)[C@H](CCC(=O)O)NC(=O)CNC(=O)[C@H](CCC(=O)O)NC(=O)[C@H](CC(C)C)NC(=O)[C@](C)(Cc1ccccc1)NC(=O)[C@H](CO)NC(=O)[C@](C)(CO)NC(=O)[C@@H](NC(=O)[C@H](CC(=O)O)NC(=O)[C@H](CO)NC(=O)[C@@H](NC(=O)[C@](C)(Cc1ccccc1)NC(=O)[C@H](CO)NC(=O)CNC(=O)[C@H](CCC(=O)O)NC(=O)C(C)(C)NC(=O)[C@@H](N)Cc1c[nH]cn1)[C@@H](C)O)C(C)C)C(=O)N[C@@H](C)C(=O)N[C@@](C)(Cc1ccccc1)C(=O)N[C@H](C(=O)N[C@H](C(=O)N[C@@](C)(CCCCN)C(=O)NCC(=O)NCC(N)=O)C(C)C)C(C)C` [compound 17], the “Percentage remaining intact peptide (AUC by RP-HPLC) upon incubation with α-chymotrypsin” value in series [1] is recorded as 100%. Besides, in series [2], the remaining at 0.5 h is 91.6%, the remaining at 1 h came to 87.2%, the remaining at 2 h was 86.3% and the remaining at 4 h is 86.6%. In addition, in series [2], the remaining at 8 h was 87.7% and the remaining at 24 h stood at 82.1%. Further, the “Percentage remaining peptide (AUC at specified time-point by RP-HPLC) upon incubation with neprilysin, t = 0” value at recombinant Neprilysin is reported as 100%. Also, the “Percentage remaining intact peptide (AUC by RP-HPLC) upon incubation with trypsin” value in series [3] is recorded as 100%. The “Percentage remaining intact peptide (AUC by RP-HPLC) upon incubation with pepsin” value in series [4] amounted to 100%.

For `CC[C@H](C)[C@H](NC(=O)[C@H](Cc1ccccc1)NC(=O)[C@H](CCC(=O)O)NC(=O)[C@H](CCCCNC(=O)COCCOCCNC(=O)COCCOCCNC(=O)CC[C@H](NC(=O)CCCCCCCCCCCCCCCCC(=O)O)C(=O)O)NC(=O)[C@H](C)NC(=O)[C@H](C)NC(=O)[C@H](CCC(=O)O)NC(=O)CNC(=O)[C@H](CCC(=O)O)NC(=O)[C@H](CC(C)C)NC(=O)[C@](C)(Cc1ccccc1)NC(=O)[C@H](CO)NC(=O)[C@](C)(CO)NC(=O)[C@@H](NC(=O)[C@H](CC(=O)O)NC(=O)[C@H](CO)NC(=O)[C@@H](NC(=O)[C@](C)(Cc1ccccc1)NC(=O)[C@H](CO)NC(=O)CNC(=O)[C@H](CCC(=O)O)NC(=O)C(C)(C)NC(=O)[C@@H](N)Cc1c[nH]cn1)[C@@H](C)O)C(C)C)C(=O)N[C@@H](C)C(=O)N[C@@](C)(Cc1ccccc1)C(=O)N[C@H](C(=O)N[C@H](C(=O)N[C@@](C)(CCCCN)C(=O)NCC(=O)NCC(N)=O)C(C)C)C(C)C` [compound 48], the “Percentage remaining intact peptide (AUC by RP-HPLC) upon incubation with α-chymotrypsin” value in series [1] stood at 100%. In addition, in series [2], the remaining at 0.5 h is 97.8%, the remaining at 1 h was 94.6%, the remaining at 2 h was determined as 90.9% and the remaining at 4 h was 88.8%. For the same compound, in series [2], the remaining at 8 h was found to be 89.4% and the remaining at 24 h amounted to 86.4%. The “Percentage remaining peptide (AUC at specified time-point by RP-HPLC) upon incubation with neprilysin, t = 0” value on recombinant Neprilysin is 100%. For the same compound, the “Percentage remaining intact peptide (AUC by RP-HPLC) upon incubation with trypsin” value in series [3] was found to be 100.0%. Moreover, the “Percentage remaining intact peptide (AUC by RP-HPLC) upon incubation with pepsin” value in series [4] is given as 100%.

For the compound `CCCCCCCCCCCC(=O)N[C@@H](CCC(=O)NCCOCCOCC(=O)NCCOCCOCC(=O)NCCCC[C@H](NC(=O)[C@H](C)NC(=O)[C@@H](NC(=O)[C@H](Cc1ccc(OC)cc1)NC(=O)[C@H](CCC(=O)O)NC(=O)[C@](C)(CCCCN)NC(=O)[C@H](C)NC(=O)[C@H](C)NC(=O)[C@H](CCC(=O)O)NC(=O)CNC(=O)[C@H](CCC(=O)O)NC(=O)[C@H](CC(C)C)NC(=O)[C@H](CCCCNC(=O)COCCOCCNC(=O)COCCOCCNC(=O)CC[C@H](NC(=O)CCCCCCCCCCC)C(=O)O)NC(=O)[C@H](CO)NC(=O)[C@](C)(CO)NC(=O)[C@@H](NC(=O)[C@H](CC(=O)O)NC(=O)[C@H](CO)NC(=O)[C@@H](NC(=O)[C@](C)(Cc1ccccc1)NC(=O)[C@H](CO)NC(=O)CNC(=O)[C@H](CCC(=O)O)NC(=O)C(C)(C)NC(=O)[C@@H](N)Cc1c[nH]cn1)[C@@H](C)O)C(C)C)[C@@H](C)CC)C(=O)N[C@H](C(=O)N[C@H](C(=O)N[C@@H](CCC(=O)O)C(=O)NCC(=O)NCC(N)=O)C(C)C)C(C)C)C(=O)O` [compound 406] (H-H[Aib]EGS[αMeF]TSDV[αMeS]SK([AEEA-AEEA-γGlu-Lauroyl])LEGEAA[αMeK]EY(Me)IAK([AEEA-AEEA-γGlu-Lauroyl])VVEGG-NH2; N-terminus assumed), the “Percentage remaining intact peptide (AUC by RP-HPLC) upon incubation with fasted-state simulated intestinal fluid (FASSIF/P)” value in series [5] is on record as 100%. Further, the remaining at 5 min, […] in series [6] (t = 5 m) was 93.9%. In addition, in series [6] (t = 10 m), the remaining at 10 min, […] is 85.7%. Further, the remaining at 0.25 h, […] in series [6] (t = 15 m) is 75.9%. In addition, the remaining at 0.5 h, […] in series [6] (t = 30 m) was 56.1%. Moreover, in series [6] (t = 1 h), the remaining at 1 h, […] is 33.2%. Moreover, the remaining at 2 h, […] in series [6] (t = 2 h) is 7.7%.
